# Patent US20200397818A1, “Multi-Mineral Supplement for Improved Bone Density” (priority 2017, published 2020)
# Test system: human mescenchymal stem cell (hMSCs)
# Settings: MTT
# Description: The MTT colorimetric cell viability provides a straightforward and quantifiable method for determining cell viability in a wide variety of cell types. An MTT assay was used to determine the cytotoxicity of Mg, Sr, Cu, and/or Zn ions in human mescenchymal stem cells. In a typical assay 2.8×10^4 cells/cm^2 human mescenchymal stem cell (hMSCs) were cultured in a low glucose DMEM culture medium supplemented with 10% (v/v) fetal bovine serum (FBS, Biowest, France), antibiotics (100 U/ml of penicillin and 100 μg/ml of streptomycin), and 2 mM L-glutamine using 96-well tissue culture plates. After one day of cell culture, testing solutions with a range of concentrations (Table 1) of different potential ions were added to the wells. The MTT solution was prepared by adding thiazolyl blue tetrazolium bromide powder to the phosphate buffered saline (PBS, OXOID Limited, England) and 10 μL of 5 mg/mL MTT solution was added on the next day. 100 μL of 10% sodium dodecyl sulfate (SDS, Sigma, USA) in 0.01 M hydrochloric acid was added to each well after four hours of culturing and incubated at 37° C. in an atmosphere of 5% CO2 and 95% air overnight. Finally, the absorbance was recorded by a multimode detector at a wavelength of 570 nm with a reference wavelength of 640 nm. Cell viability was quantified from the absorbance readings.
structure (smiles),measurement,setting,value
"O=S(=O)([O-])[O-].[Cu+2] [Cu ions, CuSO4]",ion concentration with loss of viability,ion tested independently,≥ 25 ppm
"[Cl-].[Cl-].[Mg+2] [Mg ion, MgCl2]",ion concentration above which most of the cells became non-viable,ion tested independently,exceeded 1000 ppm
same,ion concentration above which viability began to decrease,ion tested independently,exceeded 400 ppm
"[Cl-].[Cl-].[Sr+2] [Sr ion, SrCl2]",cell viability relative to control cells,ion concentrations of 100 to 400 ppm,115%
same,cell viability,"treatment with up to 1,000 ppm",~100%
"[Cl-].[Cl-].[Zn+2] [Zn ions, ZnCl2]",ion concentration above which significant cell death was found,ion tested independently,exceeded 1 ppm
